# According to patent US20060263344A1, “Novel probiotic compositions and methods of using the same” (priority 2003, published 2006):
# Legend:
# [1] = tested on: lower density lipoproteins (LDL+VLDL); assay: Inhibition of cupric ion-induced oxidation of lower density lipoproteins (antioxidant activity); type: biochemical, humans; conditions: inhibition of lipid peroxide formation in LDL+VLDL, 25 μM cupric ion, 37° C., 6 hours; matrix sample based on CoQ10 conc.
# Protocol: A weighed portion (50-500 mg) of solid sample of CoQ10 contained in a glycoprotein matrix was mixed with 5 ml of 50% methanol/water and heated at 90° C. in a plastic screw-capped tube with intermittent shaking for 2 hours to determine the unconjugated (“free”) phenols present. Another weighed portion of the same sample was heated with 5 ml of 1.2 M HCl in 50% aqueous methanol for 2 hours at 90° C. to measure the unconjugated plus conjugated (“total”) phenols. The extracts, each done in duplicate, were then filtered with a 0.45 μm filter and stored at −20° C. until assay. Values for free polyphenols and total phenols for commercial CoQ10 are known.
# The phenol content in the extracts was measured by the Folin-Cocialteu reagent (Sigma Chemical Co., St. Louis, Mo.) using catechin (Sigma) as a standard. A blank, catechin standards and samples were added to the Folin reagent in a cuvette and after 20 minutes the color was measured at 720 nm vs. a blank. […]
# The amount of lipid peroxides was measured using thiobarbituric acid and fluorometry. The % of inhibition of lipid peroxide formation was calculated vs. a control with no added antioxidants. The IC50 value in μM units was then calculated.
# The amount of CoQ10 in the composition of the invention was determined by HPLC using UV detector, C18 column (Perkin Elmer Pecosil 5, 15 cm) and a solvent of 75% methanol and 25% isopropanol. […]
# [2] = Stability of CoQ10 in a 50° C. oven open to the air (HPLC); type: physicochemical; conditions: for Loss of CoQ10 after 36 days at 50° C. (equivalent to 3 months at room temperature) / Loss of CoQ10 after 72 days at 50° C. (equivalent to 6 months at room temperature): open to the air
# Protocol: 100 mg of USP CoQ10 (Sigma) and CoQ10 contained in a glycoprotein matrix from Example 1 was placed in a 10 ml beaker in a 50° C. oven open to the air. The amount of CoQ10 remaining was analyzed by HPLC using a C18 column (Perkin Elmer Pecosil 5, 15 cm) and a solvent of 75% methanol and 25% isopropanol.
smiles,measurement,setting,value
"COC1=C(OC)C(=O)C(C/C=C(\C)CC/C=C(\C)CC/C=C(\C)CC/C=C(\C)CC/C=C(\C)CC/C=C(\C)CC/C=C(\C)CC/C=C(\C)CC/C=C(\C)CCC=C(C)C)=C(C)C1=O [CoQ10 (USP), Coenzyme Q10]",IC50,[1],1330 nM
same,Loss of CoQ10 at 0 days,[2]; 0 days,0%
same,Loss of CoQ10 after 36 days at 50° C. (equivalent to 3 months at room temperature),[2]; listed as USP CoQ10,6.8%
same,Loss of CoQ10 after 36 days at 50° C. (equivalent to 3 months at room temperature),[2]; listed as commercial CoQ10,6.8%
same,Loss of CoQ10 after 72 days at 50° C. (equivalent to 6 months at room temperature),[2]; listed as USP CoQ10,16.8%
same,Loss of CoQ10 after 72 days at 50° C. (equivalent to 6 months at room temperature),[2]; listed as commercial sample,16.8%
